Measured values: patent US5359063A, “Heterocyclene derivatives” (Imperial Chemical Industries PLC, priority 1990, dated 1994)

Columns and labels:
[1] = test system: 5-LO; test: Test b) LTB4 in heparinised human blood challenged with calcium ionophore A23187 (radioimmunoassay); type: cell-based
Protocol: b) An in vitro assay system involving incubating a test compound with heparinised human blood, prior to challenge with the calcium ionophore A23187 and then indirectly measuring the inhibitory effects on 5-LO by assaying the amount of LTB4 using specific radioimmunoassays described by Carey and Forder (F. Carey and R. A. Forder, Prostaglandins, Leukotrienes Med., 1986, 22, 57; Prostaglandins, 1984, 28, 666; Brit. J. Pharmacol. 1985, 84, 34P) which involve the use of a protein-LTB4 conjugate produced using the procedure of Young et alia (Prostaglandins, 1983, 26(4), 605-613). The effects of a test compound on the enzyme cyclooxygenase (which is involved in the alternative metabolic pathway for arachidonic acid and gives rise to prostaglandins, thromboxanes and related metabolites) may be measured at the same time using the specific radioimmunoassay for thromboxane B2 (TxB2) described by Carey and Forder (see above). This test provides an indication of the effects of a test compound against 5-LO and also cyclooxygenase in the presence of blood cells and proteins. It permits the selectivity of the inhibitory effect on 5-LO or cyclooxygenase to be assessed.

[2] = test system: 5-LO; test: Test g) LTB4 liberation induced by zymosan within an air pouch in male rats; type: in vivo; conditions: 3 h; test g), rat air pouch, oral
Protocol: g) An in vivo system involving measuring the effects of a test compound administered orally against the liberation of LTB4 induced by zymosan within an air pouch generated within the subcutaneous tissue of the back of male rats. The rats are anaesthetised and air pouches are formed by the injection of sterile air (20 ml). A further injection of air (10 ml) is similarIv given after 3 days. At 6 days after the initial air injection the test compound is administered (usually orally as the suspension produced when a solution of the test compound in dimethylsulphoxide is added to hydroxypropylmethylcellulose), followed by the intrapouch injection of zymosan (1 ml of a 1% suspension in physiological saline). After 3 hours the rats are killed, the air pouches are lavaged with physiological saline, and the specific radioimmunoassay described above is used to assay LTB4 in the washings. This test provides an indication of inhibitory effects against 5-LO in an inflammatory milieu.

| IC50 [1] | SMILES | ED50 [2] |
| --- | --- | --- |
| 150 nM | COC1(c2ccc(Sc3ccc(C(C)(C)C)cc3)s2)CCOCC1 [4-[5-(4-tert-butylphenylthio)thien-2-yl]-4-methoxytetrahydropyran] | 1.5 mg/kg |
| 40 nM | COC1(c2ccc(Sc3ccc4c(c3)CCC(=O)N4C)s2)CCOCC1 [4-methoxy-4-[5-(1-methyl-2-oxo-1,2,3,4-tetrahydroquinolin-6-ylthio)thien-2-yl]tetrahydropyran] | < 1.5 mg/kg |
